Laboratory results reported in ChEMBL document CHEMBL1201862, “PubChem BioAssay data set” (2004).
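Interpolation was linear, between the two tested concentrations surrounding the appropriate level; five concentrations were tested over 48 hours in 96-well plates. Abbreviation: GI50, concentration required for 50% inhibition of growth.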 The source made the active and inactive calls. Rule as the data show it: active = GI50 up to about 1.1 µM and inactive = higher. Where a SMILES comes first, the peptide text is derived from it. The star is where a group is joined. Boc = CC(C)(C)OC(=O)*; Bn = c1ccc(C*)cc1

Columns and labels:
Assay in all cases: inhibition of tumour cell growth, NCI panel, 48 h
OVCAR-3 = test system: OVCAR-3
NCI-H522 = test system: NCI-H522
U-251 = test system: U-251
UACC-62 = test system: UACC-62
UACC-257 = test system: UACC-257
MDA-MB-435 = test system: MDA-MB-435
CCRF-CEM = test system: CCRF-CEM
CAKI-1 = test system: CAKI-1
786-0 = test system: 786-0
SNB-19 = test system: SNB-19
M14 = test system: M14
OVCAR-8 = test system: OVCAR-8
A549 = test system: A549
ACHN = test system: ACHN
NCI-H23 = test system: NCI-H23
MOLT-4 = test system: MOLT-4
HL-60 = test system: HL-60
SNB-75 = test system: SNB-75
OVCAR-5 = test system: OVCAR-5
HCC 2998 = test system: HCC 2998

Measured: GI50

S=C1CC(c2ccc(Cl)cc2)Sc2ccccc2N1 (configuration not stated)
inactive: OVCAR-3 23.1 µM | NCI-H522 21.6 µM | U-251 41.3 µM | UACC-62 31.6 µM | UACC-257 > 100 µM | MDA-MB-435 87.1 µM | CCRF-CEM 51.9 µM | CAKI-1 41.4 µM | 786-0 34 µM | SNB-19 27.8 µM | M14 24.3 µM | OVCAR-8 > 100 µM | A549 55.5 µM | ACHN 71.8 µM | NCI-H23 37.2 µM | MOLT-4 > 10 µM | HL-60 30.5 µM | SNB-75 > 10 µM | OVCAR-5 > 100 µM

CCOC(=O)CON=c1c2ccccc2ccc2ccccc12
inactive: OVCAR-3 > 100 µM | U-251 > 100 µM | UACC-62 > 100 µM | UACC-257 > 100 µM | MDA-MB-435 > 100 µM | CCRF-CEM > 100 µM | CAKI-1 > 100 µM | 786-0 > 100 µM | SNB-19 > 100 µM | M14 > 100 µM | HCC 2998 26.1 µM | OVCAR-8 > 100 µM | A549 > 100 µM | ACHN > 100 µM | NCI-H23 > 100 µM | MOLT-4 > 100 µM | HL-60 > 100 µM | SNB-75 > 100 µM | OVCAR-5 > 100 µM

O=C1CCSCCC(=O)Nc2ccccc2N1
inactive: OVCAR-3 > 100 µM | NCI-H522 > 100 µM | U-251 > 100 µM | UACC-62 > 100 µM | UACC-257 > 100 µM | MDA-MB-435 > 100 µM | CCRF-CEM > 100 µM | CAKI-1 > 100 µM | 786-0 > 100 µM | SNB-19 > 100 µM | M14 > 100 µM | OVCAR-8 > 100 µM | A549 > 100 µM | ACHN > 100 µM | NCI-H23 > 100 µM | MOLT-4 > 100 µM | HL-60 > 100 µM | OVCAR-5 > 100 µM

Cn1c(N/N=C/c2ccc(Cl)cc2)nc(-c2ccc(Cl)cc2)c(C#N)c1=O
inactive: OVCAR-3 16.4 µM | NCI-H522 10.9 µM | U-251 29.9 µM | UACC-62 22 µM | UACC-257 72.3 µM | MDA-MB-435 29.9 µM | CCRF-CEM 25.4 µM | CAKI-1 47 µM | 786-0 15.3 µM | SNB-19 > 100 µM | M14 20 µM | OVCAR-8 14.6 µM | A549 17.8 µM | ACHN 61.5 µM | NCI-H23 18.7 µM | MOLT-4 44.7 µM | HL-60 44.7 µM | SNB-75 25.3 µM | OVCAR-5 23.8 µM

NC(=O)C(=CN1CC(=O)NC1=S)C(N)=O
inactive: OVCAR-3 > 100 µM | U-251 > 100 µM | UACC-62 > 100 µM | UACC-257 > 100 µM | MDA-MB-435 > 100 µM | CAKI-1 > 100 µM | 786-0 > 100 µM | SNB-19 > 100 µM | M14 > 100 µM | HCC 2998 > 100 µM | OVCAR-8 > 100 µM | A549 > 100 µM | ACHN > 100 µM | NCI-H23 > 100 µM | MOLT-4 > 100 µM | HL-60 > 100 µM | SNB-75 > 100 µM | OVCAR-5 > 100 µM

CCOC(=O)CCCn1cc(C(=O)OC)nn1
inactive: U-251 > 100 µM | UACC-62 > 100 µM | UACC-257 > 100 µM | MDA-MB-435 > 100 µM | CCRF-CEM > 100 µM | CAKI-1 > 100 µM | 786-0 > 100 µM | SNB-19 > 100 µM | HCC 2998 > 100 µM | OVCAR-8 > 100 µM | A549 > 100 µM | ACHN > 100 µM | NCI-H23 > 100 µM | MOLT-4 > 100 µM | SNB-75 > 100 µM

C(/c1ccco1)=c1/nc(-c2ccccc2)n2c1nc1ccccc12
inactive: OVCAR-3 9.06 µM | U-251 40.6 µM | UACC-62 63.1 µM | UACC-257 > 100 µM | MDA-MB-435 14.4 µM | CCRF-CEM 16.6 µM | CAKI-1 5.51 µM | 786-0 11 µM | SNB-19 > 100 µM | M14 22.6 µM | OVCAR-8 45.1 µM | A549 50 µM | ACHN 21.9 µM | NCI-H23 35.2 µM | MOLT-4 10.3 µM | HL-60 > 100 µM | OVCAR-5 69.8 µM

O=C(O)c1nc2cc(C(F)(F)F)ccc2nc1Nc1ccc(F)cc1
inactive: OVCAR-3 15.8 µM | NCI-H522 7.5 µM | U-251 18.3 µM | UACC-62 12.6 µM | UACC-257 20.6 µM | MDA-MB-435 7.71 µM | CCRF-CEM 12.6 µM | CAKI-1 25.2 µM | 786-0 22.4 µM | SNB-19 16.7 µM | M14 27 µM | OVCAR-8 19.4 µM | A549 11.2 µM | ACHN 12.3 µM | NCI-H23 16 µM | MOLT-4 13.6 µM | SNB-75 18.5 µM | OVCAR-5 35.1 µM

O=C1Cc2c([nH]c3c(Br)cccc23)-c2ccccc2N1
inactive: OVCAR-3 > 100 µM | U-251 57.7 µM | UACC-62 48.8 µM | UACC-257 > 100 µM | MDA-MB-435 > 100 µM | CCRF-CEM 16.4 µM | 786-0 > 100 µM | SNB-19 43.6 µM | M14 58.5 µM | HCC 2998 44.9 µM | OVCAR-8 48.2 µM | A549 > 100 µM | ACHN > 100 µM | NCI-H23 > 100 µM | MOLT-4 16.4 µM | HL-60 21.5 µM | SNB-75 33 µM | OVCAR-5 > 100 µM

COC(=O)C(CC(C)C)NC(=O)CNC(=O)C(Cc1ccc(OCc2ccccc2)cc1)NC(=O)C(COCc1ccccc1)NC(=O)OC(C)(C)C (configuration not stated) (Boc-S(Bn)Y(Bn)GL-OMe; configuration not given here)
inactive: OVCAR-3 > 100 µM | NCI-H522 72.8 µM | U-251 > 100 µM | UACC-62 > 100 µM | MDA-MB-435 > 100 µM | CAKI-1 > 100 µM | 786-0 > 100 µM | SNB-19 > 100 µM | M14 > 100 µM | OVCAR-8 > 100 µM | A549 > 100 µM | ACHN > 100 µM | NCI-H23 > 100 µM | MOLT-4 > 100 µM | HL-60 4.56 µM | SNB-75 > 100 µM | OVCAR-5 > 100 µM

Nc1nc(OCc2ccccc2)c2nc[nH]c2n1 [6-O-BENZYLGUANINE]
inactive: OVCAR-3 90.2 µM | NCI-H522 49.4 µM | U-251 87.7 µM | UACC-62 44.2 µM | UACC-257 91 µM | CCRF-CEM 66.8 µM | CAKI-1 23.1 µM | 786-0 80.7 µM | SNB-19 129 µM | M14 75.9 µM | HCC 2998 148 µM | OVCAR-8 112 µM | A549 73.8 µM | ACHN 47.4 µM | NCI-H23 97.1 µM | MOLT-4 67.6 µM | HL-60 45.7 µM | SNB-75 24.8 µM | OVCAR-5 80 µM
